Measurements reported in paper PMC3071364, “Collagenolytic Activities of the Major Secreted Cathepsin L Peptidases Involved in the Virulence of the Helminth Pathogen, Fasciola hepatica” (PLoS Neglected Tropical Diseases, 2011).
Like-named read-outs stand apart in the source and are kept apart here. Where a SMILES comes first, the peptide text is derived from it. The star is where a group is joined. AMC = Cc1cc(=O)oc2cc(N*)ccc12; Tos = Cc1ccc(S(=O)(=O)*)cc1; Cbz = O=C(OCc1ccccc1)*; Boc = CC(C)(C)OC(=O)*

How the values were obtained:
[1] = molecular target: T1, FhCL2 (Fasciola hepatica, UniProt Q7JNQ8); test: Hydrolysis of fluorogenic peptidyl-NHMec substrates by recombinant FhCL2; type: biochemical; details: FhCL2 compared to FhCL1
T1 sequence (Q7JNQ8 entry or part of it): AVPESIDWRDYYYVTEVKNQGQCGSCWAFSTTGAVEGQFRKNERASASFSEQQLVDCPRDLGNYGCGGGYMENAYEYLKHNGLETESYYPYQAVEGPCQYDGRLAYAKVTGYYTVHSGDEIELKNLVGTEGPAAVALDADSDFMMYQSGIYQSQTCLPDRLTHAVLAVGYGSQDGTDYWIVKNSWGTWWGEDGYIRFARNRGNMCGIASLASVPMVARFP
Protocol: (§1) Initial rates were obtained at 37°C over a range of substrate concentrations spanning Km values (0.2–200 µM) and at fixed enzyme concentrations (0.5–5 nM). Assays were performed in 100 mM sodium phosphate buffer (pH 6.0) containing 1 mM DTT and 1 mM EDTA. Rate constants for the inactivation of the Fasciola enzymes by Z-Phe-Ala-CHN2 and cathepsin K inhibitor II were determined from progress curves in the presence of substrate as previously described.

[2] = molecular target: T2, FhCL3 (Fasciola hepatica, UniProt B3TM67); test: Hydrolysis of fluorogenic peptidyl-NHMec substrates by recombinant FhCL3; type: biochemical; details: for kcat/Km fold increase over FhCL1 / kcat/Km fold lower than FhCL1: FhCL3 compared to FhCL1; for fold better cleavage efficiency of FhCL3 than FhCL2: FhCL3 compared to FhCL2
T2 sequence (B3TM67 entry or part of it): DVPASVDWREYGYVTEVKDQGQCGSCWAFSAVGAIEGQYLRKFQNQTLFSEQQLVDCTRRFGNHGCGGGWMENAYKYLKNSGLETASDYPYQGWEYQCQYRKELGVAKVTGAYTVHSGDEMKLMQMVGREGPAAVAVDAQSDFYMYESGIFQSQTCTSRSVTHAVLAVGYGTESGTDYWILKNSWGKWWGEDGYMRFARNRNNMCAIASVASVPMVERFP
Protocol: as §1

[3] = molecular target: T2, FhCL3; test: Inactivation of recombinant FhCL3 by inhibitors (progress curves in presence of substrate); type: biochemical
Protocol: as §1

[4] = molecular target: T1, FhCL2; test: Inactivation of recombinant FhCL2 by inhibitors (progress curves in presence of substrate); type: biochemical
Protocol: as §1

[5] = molecular target: T3, FhCL1 (Fasciola hepatica, UniProt Q7JNQ9); test: Inactivation of recombinant FhCL1 by inhibitors (progress curves in presence of substrate); type: biochemical; details: for Ki: FhCL1
T3 construct: His tag (inferred from Ni-NTA purification) (C); made in house; host or cells: Pichia pastoris
T3 sequence (Q7JNQ9 entry or part of it): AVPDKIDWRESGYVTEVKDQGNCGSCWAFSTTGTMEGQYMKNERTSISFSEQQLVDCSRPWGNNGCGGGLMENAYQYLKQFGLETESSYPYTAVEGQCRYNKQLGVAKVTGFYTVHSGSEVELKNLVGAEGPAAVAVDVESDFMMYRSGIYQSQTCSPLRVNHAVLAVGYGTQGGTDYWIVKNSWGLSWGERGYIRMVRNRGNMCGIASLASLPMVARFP
Protocol: as §1

[6] = test system: Cc1cc(=O)oc2cc(NC(=O)[C@H](CCCNC(=N)N)NC(=O)[C@@H]3CCCN3C(=O)[C@@H](NC(=O)OC(C)(C)C)C(C)C)ccc12; test: Hydrolysis of fluorogenic peptidyl-NHMec substrates by recombinant FhCL1; type: biochemical, Fasciola hepatica; details: other: FhCL1, pH 6.0, 37°C
Protocol: as §1

[7] = test system: Cc1cc(=O)oc2cc(NC(=O)[C@H](CCCCN)NC(=O)[C@H](CC(C)C)NC(=O)[C@@H](NC(=O)OC(C)(C)C)C(C)C)ccc12; test: as above; type: biochemical, Fasciola hepatica; details: other: FhCL1, pH 6.0, 37°C
Protocol: as §1

[8] = test system: Cc1cc(=O)oc2cc(NC(=O)[C@H](CCCNC(=N)N)NC(=O)[C@@H]3CCCN3C(=O)CNC(=O)[C@H](C)NC(=O)OC(C)(C)C)ccc12; test: as above; type: biochemical, Fasciola hepatica; details: other: FhCL1, pH 6.0, 37°C
Protocol: as §1

[9] = test system: Cc1cc(=O)oc2cc(NC(=O)[C@H](CCCNC(=N)N)NC(=O)[C@H](CC(C)C)NC(=O)OCc3ccccc3)ccc12; test: as above; type: biochemical, Fasciola hepatica; details: other: FhCL1, pH 6.0, 37°C
Protocol: as §1

[10] = test system: Cc1cc(=O)oc2cc(NC(=O)[C@H](CCCNC(=N)N)NC(=O)[C@H](Cc3ccccc3)NC(=O)OCc3ccccc3)ccc12; test: as above; type: biochemical, Fasciola hepatica; details: other: FhCL1, pH 6.0, 37°C
Protocol: as §1

[11] = test system: Cc1ccc(S(=O)(=O)NCC(=O)N2CCC[C@H]2C(=O)N[C@@H](CCCCN)C(=O)Nc2ccc3c(C)cc(=O)oc3c2)cc1; test: as above; type: biochemical, Fasciola hepatica; details: other: FhCL1, pH 6.0, 37°C
Protocol: as §1

[12] = test system: Cc1cc(=O)oc2cc(NC(=O)[C@H](CCCNC(=N)N)NC(=O)[C@@H](NC(=O)[C@@H](NC(=O)OCc3ccccc3)C(C)C)C(C)C)ccc12; test: as above; type: biochemical, Fasciola hepatica; details: other: FhCL1, pH 6.0, 37°C
Protocol: as §1

[13] = test system: Cc1ccc(S(=O)(=O)NCC(=O)N2CCC[C@H]2C(=O)N[C@@H](CCCNC(=N)N)C(=O)Nc2ccc3c(C)cc(=O)oc3c2)cc1; test: as above; type: biochemical, Fasciola hepatica; details: other: FhCL1, pH 6.0, 37°C
Protocol: as §1

Molecule: Cc1cc(=O)oc2cc(NC(=O)[C@H](CCCN=C(N)N)NC(=O)[C@@H]3CCCN3C(=O)CNC(=O)[C@H](C)NC(=O)OC(C)(C)C)ccc12 [Boc-AGPR-NHMec, Boc-Ala-Gly-Pro-Arg-NHMec] (Boc-AGPR-{AMC})
- kcat/Km fold increase over FhCL1 [1]: 86 fold
- kcat/Km fold increase over FhCL1 [2]: 90 fold

Molecule: Cc1cc(=O)oc2cc(NC(=O)[C@H](CCCN=C(N)N)NC(=O)[C@@H]3CCCN3C(=O)[C@@H](NC(=O)OC(C)(C)C)C(C)C)ccc12 [Boc-VPR-NHMec, Boc-Val-Pro-Arg-NHMec] (Boc-Val-Pro-Arg-{AMC})
- kcat/Km fold increase over FhCL1 [1]: 44 fold
- kcat/Km fold increase over FhCL1 [2]: 3 fold

Molecule: CC(C)C[C@H](NC(=O)OCc1ccccc1)C(=O)NNC(=O)NNC(=O)[C@H](CC(C)C)NC(=O)[C@H](Cc1ccccc1)NC(=O)OC(C)(C)C [Cathepsin K inhibitor II, Z-LNHNHCONHNHLF-Boc]
- fold less effective against FhCL3 compared to FhCL1 ([3]; FhCL3 vs FhCL1): 14 fold
- fold less effective against FhCL3 compared to FhCL2 ([3]; FhCL3 vs FhCL2): 20 fold
- Ki [4]: 0.46 nM
- Ki ([4]; read-out: Ki(app)): 4.8 nM
- Ki ([5]; Ki(app)): 12.2 nM
- Ki ([5]; Ki): 0.63 nM

Molecule: Cc1ccc(S(=O)(=O)NCC(=O)N2CCC[C@H]2C(=O)N[C@@H](CCCCN)C(=O)Nc2ccc3c(C)cc(=O)oc3c2)cc1 [Tos-GPK-NHMec, Tos-Gly-Pro-Lys-NHMec] (Tos-Gly-Pro-Lys-{AMC})
- kcat/Km fold increase over FhCL1 [1]: 22 fold
- kcat/Km fold increase over FhCL1 [2]: 60 fold
- fold better cleavage efficiency of FhCL3 than FhCL2 [2]: 3 fold

Molecule: Cc1ccc(S(=O)(=O)NCC(=O)N2CCC[C@H]2C(=O)N[C@@H](CCCN=C(N)N)C(=O)Nc2ccc3c(C)cc(=O)oc3c2)cc1 [Tos-GPR-NHMec, Tos-Gly-Pro-Arg-NHMec] (Tos-Gly-Pro-Arg-{AMC})
- kcat/Km fold increase over FhCL1 [1]: 28 fold
- kcat/Km fold increase over FhCL1 [2]: 142 fold
- fold better cleavage efficiency of FhCL3 than FhCL2 [2]: 5 fold

Molecule: Cc1cc(=O)oc2cc(NC(=O)[C@H](CCCN=C(N)N)NC(=O)[C@H](Cc3ccccc3)NC(=O)OCc3ccccc3)ccc12 [Z-FR-NHMec, Z-Phe-Arg-NHMec] (Cbz-Phe-Arg-{AMC})
- kcat/Km fold lower than FhCL1 [1]: 6 fold
- kcat/Km fold lower than FhCL1 [2]: 65 fold

Molecule: Cc1cc(=O)oc2cc(NC(=O)[C@H](CCCN=C(N)N)NC(=O)[C@H](CC(C)C)NC(=O)OCc3ccccc3)ccc12 [Z-LR-NHMec, Z-Leu-Arg-NHMec]
- kcat/Km fold lower than FhCL1 [1]: 3.5 fold
- kcat/Km fold lower than FhCL1 [2]: 66 fold

Molecule: C[C@H](NC(=O)[C@H](Cc1ccccc1)NC(=O)OCc1ccccc1)C(=O)C=[N+]=[N-] [Z-Phe-Ala-CHN2]
- rate of inactivation of FhCL3, fold lower ([3]; FhCL3 in contrast to FhCL1 and FhCL2): 20 fold
- Ki [4]: 5.32 nM
- Ki ([4]; read-out: Ki(app)): 55.2 nM
- rate of inactivation of FhCL1, fold higher than that of FhCL2 ([5]; FhCL1 compared to FhCL2): ~2 fold
- Ki ([5]; Ki(app)): 31.4 nM
- Ki ([5]; Ki): 1.62 nM

Molecule: FhCL1 (Fasciola hepatica)
- Km [6]: 22 µM
- kcat [6]: 0.01 s⁻¹
- kcat/Km [6]: 479 M⁻¹ s⁻¹
- Km [7]: 2.5 µM
- kcat [7]: 0.14 s⁻¹
- kcat/Km [7]: 54300 M⁻¹ s⁻¹
- Km [8]: 18.8 µM
- kcat [8]: 0.01 s⁻¹
- kcat/Km [8]: 674 M⁻¹ s⁻¹
- Km [9]: 1.09 µM
- kcat [9]: 1.63 s⁻¹
- kcat/Km [9]: 1.49e+06 M⁻¹ s⁻¹
- Km [10]: 1.9 µM
- kcat [10]: 0.12 s⁻¹
- kcat/Km [10]: 64900 M⁻¹ s⁻¹
- Km [11]: 17.42 µM
- kcat [11]: 0.01 s⁻¹
- kcat/Km [11]: 612 M⁻¹ s⁻¹
- Km [12]: 2.84 µM
- kcat [12]: 0.021 s⁻¹
- kcat/Km [12]: 7460 M⁻¹ s⁻¹
- Km [13]: 27.2 µM
- kcat [13]: 0.02 s⁻¹
- kcat/Km [13]: 672 M⁻¹ s⁻¹
